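Where inhibition never reached the appropriate level, the endpoint shown equals the highest concentration tested. Otherwise, values were interpolated linearly from a five-concentration, 48-hour dose response in 96-well plates. TGI is the concentration that stops growth completely.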
Tests used:
Test in all cases: growth of human tumour cells (NCI), 48 h
[1] = system: 786-0 renal
[2] = system: A498 renal
[3] = system: A549 NSCLC
[4] = system: ACHN renal
[5] = system: CAKI-1 renal
[6] = system: CCRF-CEM leukemia
[7] = system: COLO 205 colon
[8] = system: DLD-1 colon
[9] = system: DMS 114 small cell lung
[10] = system: EKVX NSCLC
[11] = system: HCC-2998 colon
[12] = system: HCT-116 colon
[13] = system: HL-60(TB) leukemia
[14] = system: HOP-62 NSCLC
[15] = system: HOP-92 NSCLC
[16] = system: HT29 colon
[17] = system: IGROV1 ovarian
[18] = system: KM12 colon
[19] = system: KM20L2 colon
[20] = system: M14 melanoma
[21] = system: M19-MEL melanoma
[22] = system: MALME-3M melanoma
[23] = system: MOLT-4 leukemia
[24] = system: NCI-H23 lung
[25] = system: NCI-H460 lung
[26] = system: NCI-H522 lung
[27] = system: OVCAR-3 ovarian
[28] = system: OVCAR-4 ovarian
[29] = system: OVCAR-5 ovarian
[30] = system: OVCAR-8 ovarian
[31] = system: RPMI-8226 leukemia
[32] = system: RXF 393 renal
[33] = system: SF-268 CNS
[34] = system: SF-295 CNS
[35] = system: SF-539 CNS
[36] = system: SK-MEL-2 melanoma
[37] = system: SK-MEL-28 melanoma
[38] = system: SK-MEL-5 melanoma
[39] = system: SK-OV-3 ovarian
[40] = system: SN12C renal
[41] = system: SNB-19 CNS
[42] = system: SR leukemia
[43] = system: SW-620 colon
[44] = system: TK-10 renal
[45] = system: UACC-257 melanoma
[46] = system: UACC-62 melanoma
[47] = system: UO-31 renal
[48] = system: DMS 273 small cell lung
[49] = system: HCT-15 colon
[50] = system: K-562 leukemia
[51] = system: LOX IMVI melanoma
[52] = system: LXFL 529 NSCLC
[53] = system: NCI-H226 lung
[54] = system: SNB-75 CNS
[55] = system: SNB-78 CNS
[56] = system: U251 CNS

Measured: TGI

COc1nc(C(=O)O)c(Cl)c(OC)c1Cl
> 100 µM: [1] | [2] | [3] | [4] | [5] | [6] | [7] | [8] | [9] | [10] | [11] | [12] | [13] | [14] | [15] | [16] | [17] | [18] | [19] | [20] | [21] | [22] | [23] | [24] | [25] | [26] | [27] | [28] | [29] | [30] | [31] | [32] | [33] | [34] | [35] | [36] | [37] | [38] | [39] | [40] | [41] | [42] | [43] | [44] | [45] | [46] | [47]

CC1(SCC(N)C(=O)O)CC(=O)NC1=O (stereo unspecified)
> 100 µM: [1] | [2] | [3] | [4] | [5] | [6] | [7] | [9] | [48] | [10] | [11] | [12] | [49] | [13] | [14] | [15] | [16] | [17] | [50] | [18] | [19] | [51] | [52] | [21] | [23] | [53] | [24] | [25] | [26] | [27] | [28] | [30] | [31] | [32] | [33] | [34] | [35] | [36] | [37] | [38] | [39] | [40] | [41] | [54] | [55] | [42] | [43] | [44] | [56] | [45] | [46] | [47]

CC1(C)CC2(S(=O)(=O)c3ccccc3)ON1CC2S(=O)(=O)c1ccccc1 (stereo unspecified)
78.5 µM: [13]
> 100 µM: [1] | [3] | [4] | [5] | [7] | [8] | [9] | [48] | [10] | [11] | [12] | [49] | [14] | [16] | [17] | [50] | [18] | [19] | [51] | [52] | [20] | [21] | [22] | [23] | [53] | [24] | [25] | [26] | [27] | [28] | [29] | [30] | [31] | [32] | [33] | [34] | [35] | [36] | [37] | [39] | [40] | [41] | [54] | [42] | [43] | [44] | [56] | [45] | [46] | [47]
89.9 µM: [6]
